This is an account of results in ChEMBL document CHEMBL1130598, “Pyrroles and other heterocycles as inhibitors of p38 kinase” (Bioorg Med Chem Lett, 1998).

For data set [1], the target named is Mitogen-activated protein kinase 14 (Rattus norvegicus, UniProt P70618). Briefly: Inhibitory potency evaluated against rat p38 kinase.
For data set [2], the target named is T1, Mitogen-activated protein kinase 9 (Homo sapiens, UniProt P45984). Briefly: Inhibition of c-Jun N-terminal kinase 2-alpha 2.
Data set [3] is described as follows: Pharmacokinetic parameter area under curve was determined at 5 mg/kg i.v. dose in rats. The following applies: rat, in vivo, iv. Also on record: dose 5 mg/kg, route intravenous. In kind it is ADME, organism-based.
Data set [4] concerns the target T2, RAF proto-oncogene serine/threonine-protein kinase (Homo sapiens, UniProt P04049). Briefly: Inhibition of RAF kinase.
Data set [5] addresses Mitogen-activated protein kinase 14 (Homo sapiens, UniProt Q16539). In words: Inhibition of Mitogen-activated protein kinase p38 alpha.
Data set [6] deals with T3, Mitogen-activated protein kinase 12 (Homo sapiens) (UniProt P53778).
T3 sequence (whole entry): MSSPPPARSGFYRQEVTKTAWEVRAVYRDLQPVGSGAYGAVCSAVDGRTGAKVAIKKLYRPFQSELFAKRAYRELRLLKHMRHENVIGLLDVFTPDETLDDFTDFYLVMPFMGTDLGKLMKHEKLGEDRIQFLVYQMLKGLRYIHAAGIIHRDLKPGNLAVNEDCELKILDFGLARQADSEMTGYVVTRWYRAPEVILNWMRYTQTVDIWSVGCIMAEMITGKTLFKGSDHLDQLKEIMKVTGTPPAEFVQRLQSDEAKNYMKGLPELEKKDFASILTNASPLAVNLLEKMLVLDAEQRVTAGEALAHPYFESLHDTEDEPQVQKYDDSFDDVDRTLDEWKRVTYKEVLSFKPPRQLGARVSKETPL
In words: Inhibition of Mitogen-activated protein kinase p38 gamma at 25 uM.

Data set [7] can be described thus: Pharmacokinetic parameter area under curve was determined at 10 mg/kg po dose in rats. The class given is ADME, organism-based. Also on record: dose 10 mg/kg, route oral. The following applies: rat, in vivo.
Data set [8] in a line: Pharmacokinetic parameter area under curve was determined at 3 mg/kg po dose in rats. Set-up: dose 3 mg/kg, route oral. The class given is ADME, organism-based. The following applies: rat, in vivo.
Data set [9] is described as follows: Pharmacokinetic parameter area under curve was determined at 2 mg/kg i.v. dose in rats. In kind it is ADME, organism-based. Also on record: dose 2 mg/kg, route intravenous. The following applies: rat, in vivo, iv.
For data set [10], the target named is T2, RAF proto-oncogene serine/threonine-protein kinase. Briefly: Inhibition of RAF kinase at 1 uM.
The species entered for data set [11] is Rattus norvegicus. In words: Inhibition of secondary paw swelling in rat adjuvant arthritis model. The class given is functional.
Data set [12] concerns the target T4, Mitogen-activated protein kinase 8 (Homo sapiens, UniProt P45983). Briefly: Inhibition of c-Jun N-terminal kinase 1-alpha 1 at 20 uM.
Data set [13] concerns the target Mitogen-activated protein kinase 11 (Homo sapiens, UniProt Q15759). Briefly: Inhibition of Mitogen-activated protein kinase p38 beta.
In data set [14] the target is T1, Mitogen-activated protein kinase 9. Briefly: Inhibition of c-Jun N-terminal kinase 2-beta 1.
The target of data set [15] is MAP kinase p38 (Homo sapiens) (UniProt O15264+Q15759+Q16539+P53778). Briefly: Inhibition of p38 MAP kinase. The class given is protein assay.
A short description of data set [16]: C max was determined at 3 mg/kg po dose in rats. The class given is ADME, organism-based. Also on record: dose 3 mg/kg, route oral. The following applies: rat, in vivo.
In data set [17] the target is T4, Mitogen-activated protein kinase 8. Briefly: Inhibition of c-Jun N-terminal kinase 1-alpha 1.
The nature of data set [18]: Pharmacokinetic parameter half-life was determined at 3 mg/kg po dose in rats. In kind it is ADME, organism-based. The following applies: rat, in vivo. Set-up: dose 3 mg/kg, route oral.
A short description of data set [19]: Pharmacokinetic parameter Vdss was determined at 5 mg/kg i.v. dose in rats. The following applies: rat, in vivo, iv, read-out: Vdss. Set-up: dose 5 mg/kg, route intravenous. The class given is ADME, organism-based.
A short description of data set [20]: Bioavailability was determined at 3 mg/kg po dose in rats. In kind it is ADME, organism-based. The following applies: rat, in vivo.
The subject of data set [21] is Rattus norvegicus. Briefly: Pharmacokinetic parameter plasma clearance was determined at 2 mg/kg i.v. dose in rats. In kind it is ADME, organism-based. Also on record: dose 2 mg/kg, route intravenous. The following applies: in vivo, iv.
For data set [22], the system named is Rattus norvegicus. In words: Pharmacokinetic parameter plasma clearance was determined at 5 mg/kg i.v. dose in rats. The class given is ADME, organism-based. Set-up: dose 5 mg/kg, route intravenous. The following applies: in vivo, iv.
Data set [23] is described as follows: Pharmacokinetic parameter half-life was determined at 10 mg/kg po dose in rats. The class given is ADME, organism-based. Also on record: dose 10 mg/kg, route oral. The following applies: rat, in vivo.
The target of data set [24] is T3, Mitogen-activated protein kinase 12 (Homo sapiens). The following applies: 50 uM.
Description: Inhibition of Mitogen-activated protein kinase p38 gamma at 50 uM
Data set [25] is described as follows: Pharmacokinetic parameter Vdss was determined at 2 mg/kg i.v. dose in rats. The class given is ADME, organism-based. Also on record: dose 2 mg/kg, route intravenous. The following applies: rat, in vivo, iv, read-out: Vdss.
The nature of data set [26]: Pharmacokinetic parameter half-life was determined at 2 mg/kg i.v. dose in rats. The following applies: rat, in vivo, iv. Set-up: dose 2 mg/kg, route intravenous. The class given is ADME, organism-based.
For data set [27], the system named is Rattus norvegicus. In words: Inhibition of secondary paw swelling in rat adjuvant arthritis model at 20 mg/kg/ b.i.d. The class given is functional. The following applies: intraduodenal.
Data set [28] can be described thus: C max was determined at 10 mg/kg po dose in rats. The class given is ADME, organism-based. Set-up: dose 10 mg/kg, route oral. The following applies: rat, in vivo.
Data set [29] can be described thus: T max was determined at 10 mg/kg po dose in rats. In kind it is ADME, organism-based. Set-up: dose 10 mg/kg, route oral. The following applies: rat, in vivo.
Data set [30] in a line: T max was determined at 3 mg/kg po dose in rats. The class given is ADME, organism-based. Set-up: dose 3 mg/kg, route oral. The following applies: rat, in vivo.
Data set [31] is described as follows: Pharmacokinetic parameter half-life was determined at 5 mg/kg i.v. dose in rats. In kind it is ADME, organism-based. Set-up: dose 5 mg/kg, route intravenous. The following applies: rat, in vivo, iv.

Mitogen-activated protein kinase 14 (Rattus norvegicus, UniProt P70618), sequence (P70618 whole entry): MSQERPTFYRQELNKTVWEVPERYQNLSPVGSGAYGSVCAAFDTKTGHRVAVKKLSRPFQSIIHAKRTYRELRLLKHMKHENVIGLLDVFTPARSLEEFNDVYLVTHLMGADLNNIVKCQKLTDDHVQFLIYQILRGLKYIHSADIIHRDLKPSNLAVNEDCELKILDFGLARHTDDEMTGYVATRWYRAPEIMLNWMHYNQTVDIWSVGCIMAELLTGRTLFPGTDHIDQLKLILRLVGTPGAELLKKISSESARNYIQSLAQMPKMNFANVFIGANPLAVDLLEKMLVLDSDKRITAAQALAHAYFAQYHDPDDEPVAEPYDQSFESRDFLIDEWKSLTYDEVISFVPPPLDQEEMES
T2 sequence (P04049 whole entry): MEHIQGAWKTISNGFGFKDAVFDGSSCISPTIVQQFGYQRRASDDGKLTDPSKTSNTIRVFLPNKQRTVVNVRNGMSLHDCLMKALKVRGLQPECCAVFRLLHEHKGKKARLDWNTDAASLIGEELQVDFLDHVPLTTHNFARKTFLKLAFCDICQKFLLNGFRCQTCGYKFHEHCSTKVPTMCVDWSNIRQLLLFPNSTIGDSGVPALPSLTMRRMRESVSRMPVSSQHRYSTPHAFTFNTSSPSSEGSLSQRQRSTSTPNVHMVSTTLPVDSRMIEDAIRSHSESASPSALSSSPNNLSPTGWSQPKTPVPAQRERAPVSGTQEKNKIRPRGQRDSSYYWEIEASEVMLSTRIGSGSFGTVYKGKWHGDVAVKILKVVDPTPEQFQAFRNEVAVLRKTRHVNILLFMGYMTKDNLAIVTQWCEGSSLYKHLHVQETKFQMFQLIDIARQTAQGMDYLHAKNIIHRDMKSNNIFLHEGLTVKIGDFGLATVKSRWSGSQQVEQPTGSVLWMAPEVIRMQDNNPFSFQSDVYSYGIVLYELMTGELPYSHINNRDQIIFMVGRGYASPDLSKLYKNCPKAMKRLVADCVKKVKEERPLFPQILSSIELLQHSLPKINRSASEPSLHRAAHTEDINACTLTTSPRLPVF
T1 sequence (P45984 whole entry): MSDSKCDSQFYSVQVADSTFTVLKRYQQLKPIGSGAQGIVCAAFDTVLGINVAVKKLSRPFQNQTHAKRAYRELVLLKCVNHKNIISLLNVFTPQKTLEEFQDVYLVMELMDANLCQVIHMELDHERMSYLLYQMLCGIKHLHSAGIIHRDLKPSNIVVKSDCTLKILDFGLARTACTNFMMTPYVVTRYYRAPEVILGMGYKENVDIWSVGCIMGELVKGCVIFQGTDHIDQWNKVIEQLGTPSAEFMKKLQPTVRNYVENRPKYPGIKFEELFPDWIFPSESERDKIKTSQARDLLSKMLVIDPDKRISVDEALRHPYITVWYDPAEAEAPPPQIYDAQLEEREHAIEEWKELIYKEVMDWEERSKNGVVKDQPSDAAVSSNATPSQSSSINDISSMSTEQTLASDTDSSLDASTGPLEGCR
T4 sequence (P45983 whole entry): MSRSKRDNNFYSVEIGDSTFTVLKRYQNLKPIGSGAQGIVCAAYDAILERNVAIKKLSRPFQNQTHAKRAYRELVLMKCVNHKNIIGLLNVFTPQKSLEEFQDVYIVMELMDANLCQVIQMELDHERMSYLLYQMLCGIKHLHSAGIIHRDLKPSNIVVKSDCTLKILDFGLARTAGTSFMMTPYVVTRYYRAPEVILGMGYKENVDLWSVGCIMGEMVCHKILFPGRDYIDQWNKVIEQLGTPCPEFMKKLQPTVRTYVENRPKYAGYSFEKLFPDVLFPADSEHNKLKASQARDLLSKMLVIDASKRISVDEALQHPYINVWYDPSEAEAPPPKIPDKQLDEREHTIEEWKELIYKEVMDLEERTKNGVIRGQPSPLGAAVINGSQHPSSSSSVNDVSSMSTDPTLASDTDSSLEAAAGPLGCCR
Mitogen-activated protein kinase 14 (Homo sapiens, UniProt Q16539), sequence (Q16539 whole entry): as the sequence (P70618 whole entry) above, with V17I, H48L, A263T, E321D, F332L counted along it
Mitogen-activated protein kinase 11, sequence (Q15759 whole entry): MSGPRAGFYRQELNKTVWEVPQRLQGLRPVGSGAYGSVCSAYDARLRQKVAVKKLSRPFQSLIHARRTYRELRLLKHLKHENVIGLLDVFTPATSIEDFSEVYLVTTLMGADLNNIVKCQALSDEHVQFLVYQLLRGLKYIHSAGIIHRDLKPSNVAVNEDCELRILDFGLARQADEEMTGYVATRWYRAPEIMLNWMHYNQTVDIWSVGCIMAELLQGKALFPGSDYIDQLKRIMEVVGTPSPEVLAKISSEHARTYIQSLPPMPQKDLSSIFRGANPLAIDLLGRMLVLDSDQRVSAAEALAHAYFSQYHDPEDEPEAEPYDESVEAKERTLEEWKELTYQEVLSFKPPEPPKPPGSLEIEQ

In general, IC50 refers to the concentration that inhibits the measured activity by half. As to `Fc1ccc(-c2[nH]c(-c3ccc(Br)cc3)cc2-c2ccncc2)cc1`, in data set [1], the half-maximal inhibitory concentration (IC50) was 100 nM.
On the same count and under the same terms, the figure for `c1ccc(-c2cc(-c3ccncc3)c(-c3ccncc3)[nH]2)cc1` is 1220 nM; for `Clc1ccc(-c2cc(-c3ccncc3)c(-c3ccccc3)[nH]2)cc1` it is 510 nM.
The compound `CSc1ccc(-c2[nH]c(-c3ccccc3)cc2-c2ccncc2)cc1` displayed an IC50 in data set [1] of 690 nM.
For orientation: AUC means the area under the concentration-time curve, a measure of exposure. A higher AUC goes with high exposure. One may read the inhibition as the share of the control response that was lost under treatment. A high value points to strong suppression. `CS(=O)(=O)c1ccc(-c2cc(-c3ccncc3)c(-c3ccc(F)cc3)[nH]2)cc1`: the half-maximal inhibitory concentration (IC50) in data set [2] was determined as 6850 nM; in [4] it was 500 nM; in [5] it was 9 nM; in data set [1], 9.8 nM; in data set [13] it was 10 nM; in data set [14], 1080 nM. Moreover, the AUC is 32.6 µM·h in data set [3], 95.7 µM·h in data set [7], 5.8 µM·h in data set [8] and 6.18 µM·h in [9]. Besides, the inhibition in data set [6] is 37%; in data set [10], 50%; in data set [12] it was 50%. Also, the ED50 in the data set listed under Rattus norvegicus [11] (Rattus norvegicus, read-out: ID50 (the source's name)) stood at 7.4 mg/kg/day.
For `COc1ccc2c(c1)c(CC(=O)O)c(C)n2C(=O)c1ccc(Cl)cc1` [INDOMETHACIN], the ID50 in the data set listed under Rattus norvegicus [11] worked out at 1 mg kg-1 b.i.d.
Turning to `CCOC(=O)c1ccc(-c2[nH]c(-c3ccccc3)cc2-c2ccncc2)cc1`, the half-inhibitory concentration (IC50) in data set [1] was over 10000 nM.
Take `Fc1ccc(-c2nc(-c3ccc(Cl)cc3)[nH]c2-c2ccncc2)cc1`: the 50% inhibitory concentration (IC50) in data set [1] was 80 nM.
Still for that read-out and setting: the figure for `COc1ccc(-c2cc(-c3ccncc3)c(-c3ccccc3)[nH]2)cc1` is 280 nM.
The same measure, in the same setting: the figure for `Clc1ccccc1-c1[nH]c(-c2ccccc2)cc1-c1ccncc1` is 500 nM.
The same measure, in the same setting: the value for `Fc1ccc(-c2cc(-c3ccc(Cl)cc3)oc2-c2ccncc2)cc1` was 530 nM; that for `Fc1ccc(-c2[nH]c(-c3ccccc3)cc2-c2ccncc2)c(F)c1` was 29 nM; that for `Clc1ccc(-c2[nH]c(-c3ccccc3)cc2-c2ccncc2)cc1` was 18 nM.
`c1ccc(-c2cc(-c3ccncc3)c(-c3ccccn3)[nH]2)cc1` showed a concentration for half-maximal inhibition (IC50) in data set [1] of 2300 nM.
Still for that read-out and setting: the value for `CCOC(=O)c1ccc(-c2cc(-c3ccncc3)c(-c3ccccc3)[nH]2)cc1` was 130 nM.
Take `Fc1ccc(-c2[nH]c(-c3ccccc3)cc2-c2ccccc2)cc1`: the inhibition in data set [15] came out at 79%.
Take `Fc1ccc(-c2cc(-c3ccc(Cl)cc3)[nH]c2-c2ccncc2)cc1`: the IC50 in data set [1] turned out to be 1400 nM.
Regarding `O=c1c(-c2ccc(F)cc2)c(-c2ccncc2)[nH]n1-c1ccc(Cl)cc1`, the midpoint of inhibition in data set [1], the IC50, lay at 35 nM.
Same read-out and setting: the value for `O=C(NCCN1CCCCC1)c1ccc(-c2cc(-c3ccncc3)c(-c3ccccc3)[nH]2)cc1` was 97 nM.
The same measure, in the same setting: the value for `Fc1ccccc1-c1cc(-c2ccncc2)c(-c2ccccc2)[nH]1` was 34 nM.
Take `Fc1ccc(-c2[nH]c(-c3ccc(Cl)cc3)cc2-c2ccccn2)cc1`: the IC50 in [1] is over 10000 nM.
As a reminder, the Cmax is the maximum level reached in the sampled fluid or tissue. Usually half-life stands for how long it takes for the measured level to halve. A low value points to fast loss. Usually bioavailability stands for dose-corrected exposure relative to a reference, in per cent. Low readings indicate poor availability, high ones good availability. One may read the inhibition in vivo as how much of the control response was suppressed. Usually Tmax stands for the time from dosing to the highest level. For the compound `C[S+]([O-])c1ccc(-c2cc(-c3ccncc3)c(-c3ccc(F)cc3)[nH]2)cc1` (stereo unspecified), the half-maximal inhibitory concentration (IC50) in data set [2] was 7610 nM; in [17] it was 16000 nM; in [4], 470 nM; in data set [5], 5 nM; in data set [1] it was 5.1 nM; in [13] it was 8.1 nM. Further, half-maximal inhibition in data set [14] (IC50) was put at 1500 nM. Further, the AUC in data set [3] is 10 µM·h; in data set [7], 16.7 µM·h; in data set [8] it was 0.81 µM·h; in data set [9] it was 2.1 µM·h. Also, the highest concentration (Cmax) is 0.31 µM in data set [16] and 5.71 µM in [28]. The half-life in [18] is 2.04 h; in data set [23], 2.59 h; in [26], 0.652 h; in [31] it was 1.06 h. Besides, the results for the Vd in [19] and in data set [25] were 1.81 L/kg and 2.23 L/kg, respectively. The compound further gave a bioavailability in data set [20] of 25.6%. The Clp in the data set on Rattus norvegicus [21] is 42.6 mL/min/kg; in the data set with Rattus norvegicus [22] it was 22.5 mL/min/kg. In data set [24], this compound displayed an inhibition of 42%. In addition, the ID50 in the data set listed under Rattus norvegicus [11] is listed as 7.4 mg kg-1 b.i.d. Also, in the data set on Rattus norvegicus [27], the inhibition in vivo at 20 mg/kg was 90%. Further, the time of peak concentration (Tmax) in [29] is 1.05 h; in data set [30], 1 h.
In data set [1], `Fc1ccc(-c2[nH]c(-c3ccc(Cl)cc3)cc2-c2ccncc2)cc1` gave an IC50 of 200 nM.
Still for that read-out and setting: the figure for `Oc1ccc(-c2[nH]c(-c3ccccc3)cc2-c2ccncc2)cc1` is 2400 nM; for `Fc1ccc(-c2[nH]c(-c3ccccc3)cc2-c2ccncc2)cc1F` it is 4.4 nM.
The same measure, in the same setting: the figure for `Fc1ccc(-c2oc(-c3ccc(Cl)cc3)cc2-c2ccncc2)cc1` is 630 nM; for `O=[N+]([O-])c1ccc(-c2cc(-c3ccncc3)c(-c3ccccc3)[nH]2)cc1` it is 6.1 nM.
